Experiments:
ORL1 receptor = biological target: T1, ORL1 receptor (Homo sapiens, UniProt P41146); assay: ORL1 receptor binding assay with 3H-nociceptin/orphanin FQ (WGA-SPA beads); conditions: c=1 μM test substance; 0.5 nM 3H-nociceptin/orphanin FQ; membranes of recombinant CHO-ORL1 cells
T1 construct: expressed in transfected cells; host or cells: CHO (recombinant CHO-ORL1 cells), membranes
Method in brief: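 Radioligand displacement on membranes from recombinant CHO-ORL1 cells, 0.5 nM 3H-nociceptin/orphanin FQ, 20 μg membrane protein per batch in 50 mM Hepes pH 7.4, 10 mM MgCl2, 1 mM EDTA. Incubated 1 h at room temperature with WGA-SPA beads, scintillation read. Reported as Ki (nM) or % inhibition at 1 μM.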

human μ-opiate receptor = biological target: T2, human μ-opiate receptor (Homo sapiens, UniProt P35372); assay: μ-opiate receptor binding assay with [3H] naloxone (WGA-SPA beads); conditions: 1 μmol/l test substance, 1 nmol/l [3H] naloxone, CHO-K1 cell membranes expressing human μ-opiate receptor
T2 construct: purchased NEN, Zaventem, Belgium RB-HOM; host or cells: CHO-K1 cells (membrane preparation)
T2 sequence (P35372 whole entry): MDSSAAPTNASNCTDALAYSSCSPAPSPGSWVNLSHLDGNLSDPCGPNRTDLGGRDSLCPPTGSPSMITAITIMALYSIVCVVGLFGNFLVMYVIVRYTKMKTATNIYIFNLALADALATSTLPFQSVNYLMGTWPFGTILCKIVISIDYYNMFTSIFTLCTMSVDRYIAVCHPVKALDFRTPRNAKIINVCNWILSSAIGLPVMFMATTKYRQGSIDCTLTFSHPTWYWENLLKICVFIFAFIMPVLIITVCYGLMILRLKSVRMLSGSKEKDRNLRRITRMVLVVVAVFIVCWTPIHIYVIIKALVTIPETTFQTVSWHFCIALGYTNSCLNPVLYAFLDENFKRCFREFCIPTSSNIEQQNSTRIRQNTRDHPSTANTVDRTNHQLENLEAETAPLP
Method in brief: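 CHO-K1 membranes expressing human μ-opiate receptor incubated 90 min at room temperature with 1 nmol/l [3H]naloxone and WGA-SPA beads in 50 mmol/l Tris-HCl with 0.05% azide, 0.06% BSA. Non-specific binding with 25 μmol/l naloxone; % inhibition at 1 μmol/l, or IC50 converted to Ki via Cheng-Prusoff.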

T1 sequence (P41146 whole entry): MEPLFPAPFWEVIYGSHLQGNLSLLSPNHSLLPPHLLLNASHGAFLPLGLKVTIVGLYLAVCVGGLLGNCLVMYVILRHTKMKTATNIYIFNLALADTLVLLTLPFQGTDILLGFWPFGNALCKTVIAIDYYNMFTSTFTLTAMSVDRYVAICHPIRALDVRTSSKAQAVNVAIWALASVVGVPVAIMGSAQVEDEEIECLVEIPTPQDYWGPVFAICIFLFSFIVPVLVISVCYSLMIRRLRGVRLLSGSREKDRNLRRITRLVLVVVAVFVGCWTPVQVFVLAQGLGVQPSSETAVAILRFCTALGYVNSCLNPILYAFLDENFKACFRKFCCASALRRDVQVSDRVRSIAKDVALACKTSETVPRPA

SMILES: CC(C)C(C(=O)N1CCC(c2ccccc2)(N(C)C)CC1)N(C)C(=O)Cc1c[nH]c2ccc(Br)cc12 (stereo not shown) [Example 83, 2-(5-bromo-1H-indol-3-yl)-N-(1-(4-(dimethylamino)-4-phenylpiperidin-1-yl)-3-methyl-1-oxobutan-2-yl)-N-methylacetamide]
- inhibition at 1 µM (ORL1 receptor): 95%
- inhibition at 1 µM (human μ-opiate receptor): 84%

SMILES: CN(C)C1(c2ccccc2)CCN(C(=O)C2CN(C(=O)c3cccc4c3ccn4C)c3ccccc32)CC1 (stereo not shown) [Example 114, (4-(dimethylamino)-4-phenylpiperidin-1-yl)(1-(1-methyl-1H-indole-4-carbonyl)indolin-3-yl)methanone]
- inhibition at 1 µM (ORL1 receptor): 56%
- inhibition at 1 µM (human μ-opiate receptor): 90%

SMILES: COc1ccc2[nH]cc(CN(C)CCN3CCC(c4ccccc4)(N(C)C)CC3)c2c1 [Example 192, 1-(2-(((5-methoxy-1H-indol-3-yl)methyl)(methyl)amino)ethyl)-N,N-dimethyl-4-phenylpiperidin-4-amine]
- % Inhibition (ORL1) at 1 μM (ORL1 receptor): 76%
- % Inhibition (μ) at 1 μM (human μ-opiate receptor): 96%

SMILES: CN(CCN1CCC(c2ccccc2)(N(C)C)CC1)C(=O)C1CCCc2c1[nH]c1ccc(Cl)cc21 (stereo not shown) [Example 25, 6-Chloro-N-(2-(4-(dimethylamino)-4-phenylpiperidin-1-yl)ethyl)-N-methyl-2,3,4,9-tetrahydro-1H-carbazole-1-carboxamide]
- % Inhibition (ORL1) at 1 μM (ORL1 receptor): 62%
- % Inhibition (μ) at 1 μM (human μ-opiate receptor): 86%

SMILES: CN(C)C1(c2cccs2)CCN(C(=O)CC(NC(=O)c2cccc3c2ccn3C)c2ccccc2)CC1 (stereo not shown) [Example 108, N-(3-(4-(dimethylamino)-4-(thiophen-2-yl)piperidin-1-yl)-3-oxo-1-phenylpropyl)-1-methyl-1H-indole-4-carboxamide]
- inhibition at 1 µM (ORL1 receptor): 63%
- inhibition at 1 µM (human μ-opiate receptor): 98%

SMILES: CN(C)C1(c2cccs2)CCN(CCNCc2c[nH]c3ccc(Cl)cc23)CC1 [Example 178, 1-(2-((5-chloro-1H-indol-3-yl)methylamino)ethyl)-N,N-dimethyl-4-(thiophen-2-yl)piperidin-4-amine]
- inhibition at 1 µM (ORL1 receptor): 99%
- inhibition at 1 µM (human μ-opiate receptor): 100%

SMILES: Cc1c(CN(C)CCCN2CCC(c3cccs3)(N(C)C)CC2)c2ccccc2n1C [Example 81, 1-(3-(((1,2-Dimethyl-1H-indol-3-yl)methyl)(methyl)amino)propyl)-N,N-dimethyl-4-(thiophen-2-yl)piperidin-4-amine]
- inhibition at 1 µM (ORL1 receptor): 98%
- inhibition at 1 µM (human μ-opiate receptor): 100%

SMILES: COc1ccc2[nH]c(C(=O)N(C)CCCN3CCC(c4cccs4)(N(C)C)CC3)cc2c1 [Example 22, N-(3-(4-(Dimethylamino)-4-(thiophen-2-yl)piperidin-1-yl)propyl)-5-methoxy-N-methyl-1H-indole-2-carboxamide]
- inhibition at 1 µM (ORL1 receptor): 25%
- inhibition at 1 µM (human μ-opiate receptor): 70%

SMILES: CN(C)C1(c2cccs2)CCN(C(=O)CNC(=O)c2ccc3ccn(C)c3c2)CC1 [Example 109, N-(2-(4-(dimethylamino)-4-(thiophen-2-yl)piperidin-1-yl)-2-oxoethyl)-1-methyl-1H-indole-6-carboxamide]
- inhibition at 1 µM (ORL1 receptor): 61%
- inhibition at 1 µM (human μ-opiate receptor): 81%

SMILES: CN(C)C1(c2ccccc2)CCN(C(=O)CCNCc2cccc3cc[nH]c23)CC1 [Example 171, 3-((1H-indol-7-yl)methylamino)-1-(4-(dimethylamino)-4-phenylpiperidin-1-yl)propan-1-one]
- inhibition at 1 µM (ORL1 receptor): 73%
- inhibition at 1 µM (human μ-opiate receptor): 97%

SMILES: CC(C)C(CC(=O)N1CCCC(C(=O)N2CCC(c3ccccc3)(N(C)C)CC2)C1)c1c[nH]c2ccccc12 (stereo not shown) [Example 106, 1-(3-(4-(dimethylamino)-4-phenylpiperidine-1-carbonyl)piperidin-1-yl)-3-(1H-indol-3-yl)-4-methylpentan-1-one]
- inhibition at 1 µM (ORL1 receptor): 63%
- inhibition at 1 µM (human μ-opiate receptor): 92%

SMILES: CCCCC1(N(C)C)CCN(CCN(C)C(=O)c2cccc3c2ccn3C)CC1 [Example 41, N-(2-(4-Butyl-4-(dimethylamino)piperidin-1-yl)ethyl)-N,1-dimethyl-1H-indole-4-carboxamide]
- inhibition at 1 µM (ORL1 receptor): 17%
- inhibition at 1 µM (human μ-opiate receptor): 63%

SMILES: CN(C)C1(c2ccccc2)CCN(C(=O)C2CN(C(=O)Cc3c[nH]c4cc(F)ccc34)c3ccccc32)CC1 (stereo not shown) [Example 86, 1-(3-(4-(dimethylamino)-4-phenylpiperidine-1-carbonyl)indolin-1-yl)-2-(6-fluoro-1H-indol-3-yl)ethanone]
- inhibition at 1 µM (ORL1 receptor): 94%
- inhibition at 1 µM (human μ-opiate receptor): 88%

SMILES: CN(C)C1(c2ccccc2)CCN(C(=O)C2CCCN(Cc3c[nH]c4ccccc34)C2)CC1 (stereo not shown) [Example 151, (1-((1H-indol-3-yl)methyl)piperidin-3-yl)(4-(dimethylamino)-4-phenylpiperidin-1-yl)methanone]
- inhibition at 1 µM (ORL1 receptor): 52%
- inhibition at 1 µM (human μ-opiate receptor): 83%

SMILES: CN(C)C1(c2ccccc2)CCN(C(=O)C2CCCN(Cc3cccc4cc[nH]c34)C2)CC1 (stereo not shown) [Example 158, (1-((1H-indol-7-yl)methyl)piperidin-3-yl)(4-(dimethylamino)-4-phenylpiperidin-1-yl)methanone]
- inhibition at 1 µM (ORL1 receptor): 61%
- inhibition at 1 µM (human μ-opiate receptor): 93%

SMILES: COc1ccc2[nH]cc(CNCCN3CCC(c4cccs4)(N(C)C)CC3)c2c1 [Example 188, 1-(2-((5-methoxy-1H-indol-3-yl)methylamino)ethyl)-N,N-dimethyl-4-(thiophen-2-yl)piperidin-4-amine]
- inhibition at 1 µM (ORL1 receptor): 85%
- inhibition at 1 µM (human μ-opiate receptor): 99%

SMILES: CN(CCN1CCC(c2ccccc2)(N(C)C)CC1)C(=O)c1cc2cc(F)ccc2[nH]1 [Example 3, N-(2-(4-(Dimethylamino)-4-phenylpiperidin-1-yl)ethyl)-5-fluoro-N-methyl-1H-indol-2-amide]
- % Inhibition (ORL1) at 1 μM (ORL1 receptor): 90%
- % Inhibition (μ) at 1 μM (human μ-opiate receptor): 92%

SMILES: CN(C)c1ccc2cc(C(=O)NCCC(=O)N3CCC(c4ccccc4)(N(C)C)CC3)[nH]c2c1 [Example 120, 6-(dimethylamino)-N-(3-(4-(dimethylamino)-4-phenylpiperidin-1-yl)-3-oxopropyl)-1H-indole-2-carboxamide]
- inhibition at 1 µM (ORL1 receptor): 45%
- inhibition at 1 µM (human μ-opiate receptor): 60%

SMILES: CN(CCN1CCC(c2ccccc2)(N(C)C)CC1)C(=O)c1ccc2cc[nH]c2c1 [Example 1, N-(2-(4-(Dimethylamino)-4-phenylpiperidin-1-yl)ethyl)-N-methyl-1H-indol-6-amide]
- % Inhibition (ORL1) at 1 μM (ORL1 receptor): 80%
- % Inhibition (μ) at 1 μM (human μ-opiate receptor): 94%

SMILES: CN(CCN1CCC(c2ccccc2)(N2CCCC2)CC1)Cc1ccc2cc[nH]c2c1 [Example 143, N-((1H-indol-6-yl)methyl)-N-methyl-2-(4-phenyl-4-(pyrrolidin-1-yl)piperidin-1-yl)ethanamine]
- inhibition at 1 µM (ORL1 receptor): 13%
- inhibition at 1 µM (human μ-opiate receptor): 71%

SMILES: CN(CCN1CCC(c2ccccc2)(N(C)C)CC1)C(=O)c1cccc2c1ccn2C [Example 31, N-(2-(4-(Dimethylamino)-4-phenylpiperidin-1-yl)ethyl)-N,1-dimethyl-1H-indole-4-carboxamide]
- inhibition at 1 µM (ORL1 receptor): 35%
- inhibition at 1 µM (human μ-opiate receptor): 88%

SMILES: CN(CCN1CCC(c2ccccc2)(N(C)C)CC1)C(=O)c1c[nH]c2ccccc12 [Example 12, N-(2-(4-(Dimethylamino)-4-phenylpiperidin-1-yl)ethyl)-N-methyl-1H-indole-3-carboxamide]
- inhibition at 1 µM (ORL1 receptor): 67%
- inhibition at 1 µM (human μ-opiate receptor): 84%

SMILES: Cc1c(CNCCN2CCC(c3cccs3)(N(C)C)CC2)c2ccccc2n1C [Example 80, 1-(2-((1,2-Dimethyl-1H-indol-3-yl)methylamino)ethyl)-N,N-dimethyl-4-(thiophen-2-yl)pipendin-4-amine]
- inhibition at 1 µM (ORL1 receptor): 97%
- inhibition at 1 µM (human μ-opiate receptor): 101%

SMILES: CN(CCCN1CCC(c2cccs2)(N(C)C)CC1)C(=O)c1c[nH]c2ccccc12 [Example 11, N-(3-(4-(Dimethylamino)-4-(thiophen-2-yl)piperidin-1-yl)propyl)-N-methyl-1H-indole-3-carboxamide]
- inhibition at 1 µM (ORL1 receptor): 80%
- inhibition at 1 µM (human μ-opiate receptor): 86%

SMILES: CCCCC1(N(C)C)CCN(CCN(C)C(=O)CC(c2c[nH]c3ccccc23)C(C)C)CC1 (stereo not shown) [Example 33, N-(2-(4-Butyl-4-(dimethylamino)piperidin-1-yl)ethyl)-3-(1H-indol-3-yl)-N,4-dimethylpentanamide]
- inhibition at 1 µM (ORL1 receptor): 27%
- inhibition at 1 µM (human μ-opiate receptor): 94%

SMILES: CC(C)C(C(=O)N1CCC(c2ccccc2)(N(C)C)CC1)N(C)Cc1ccc2cc[nH]c2c1 (stereo not shown) [Example 149, 2-(((1H-indol-6-yl)methyl)(methyl)amino)-1-(4-(dimethylamino)-4-phenylpiperidin-1-yl)-3-methylbutan-1-one]
- inhibition at 1 µM (ORL1 receptor): 52%
- inhibition at 1 µM (human μ-opiate receptor): 54%

SMILES: CN(C)C1(c2ccccc2)CCN(C(=O)C2CN(Cc3ccc4cc[nH]c4c3)c3ccccc32)CC1 (stereo not shown) [Example 170, (1-((1H-indol-6-yl)methyl)indolin-3-yl)(4-(dimethylamino)-4-phenylpiperidin-1-yl)methanone]
- inhibition at 1 µM (ORL1 receptor): 38%
- inhibition at 1 µM (human μ-opiate receptor): 80%

SMILES: CN(C)C1(c2cccs2)CCN(C(=O)CC(NCc2c[nH]c3ccc(Br)cc23)c2ccccc2)CC1 (stereo not shown) [Example 163, 3-((5-bromo-1H-indol-3-yl)methylamino)-1-(4-(dimethylamino)-4-(thiophen-2-yl)piperidin-1-yl)-3-phenylpropan-1-one]
- inhibition at 1 µM (ORL1 receptor): 55%
- inhibition at 1 µM (human μ-opiate receptor): 87%

SMILES: CN(C)C1(c2ccccc2)CCN(C(=O)CCNC(=O)c2ccc3cc[nH]c3c2)CC1 [Example 113, N-(3-(4-(dimethylamino)-4-phenylpiperidin-1-yl)-3-oxopropyl)-1H-indole-6-carboxamide]
- inhibition at 1 µM (ORL1 receptor): 57%
- inhibition at 1 µM (human μ-opiate receptor): 89%
